# Laboratory results from US10206988B2, “Xenoantigen-displaying anti-cancer vaccines and method of making” (The University of Toledo, priority 2012, dated 2019).
# Columns and labels:
# [1] = system: female BALB/c mice; assay: Anti-Rha antibody generation with Rha-Ficoll/Alum (ELISA against Rha-BSA); format: in vivo; conditions: day 66 sera
# Procedure: The 20 female BALB/c mice used for this study were divided into four groups A1, A2, B1, and B2, containing 5 mice each. Groups A1 and B1 served as the control groups and were not immunized. Groups A2 and B2 were injected subcutaneously (day 0) with a 100 μL subcutaneous injections Rha-Ficoll/Alum on days 14, 28, 42, and 56 (100 μg of Rha-Ficoll per mouse, each boost). The mice in each group A1, A2, B1, and B2 were bled on day 66 and the collected sera were tested for anti-Rha antibodies.
# 96 well plates (Immulon 4 HBX) were coated with Rha-BSA conjugate (6) (2 μg/mL) in 0.01 M PBS and incubated overnight at 4° C. The plates were washed 5 times with PBS containing 0.1% Tween-20. Blocking was achieved by incubating the plates for 1 h at room temperature with BSA in 0.01 M PBS (1 mg/mL). The plates were then washed 5 times and incubated for 1 h with serum dilutions in PBS. Unbound antibody in the serum was removed by washing and the plates were incubated for 1 h at room temperature with Horseradish Peroxidase (HRP) goat anti-mouse IgG+IgM (Jackson Immunoresearch Laboratories) diluted 5000 times in PBS/BSA. The plates were washed with TMB (3,3′,5,5′-tetramethylbenzidine). One component HRP microwell substrate (Bio FX, Owings Mills, Md.) was added and allowed to react for 10 mins. Absorbances were recorded at 620 nm and were plotted against log10 [1/serum dilution]. […]
# [2] = system: female BALB/c mice; assay: Comparison of anti-Rha antibody titers and isotypes generated against Rha-Ficoll and Rha-OVA (screening against Rha-BSA); format: in vivo; conditions: isotype distribution, sera screened against Rha-BSA
# Procedure: 96 well plates (Immulon 4 HBX) were coated with Rha-BSA conjugate (6) (2 μg/mL) in 0.01 M PBS and incubated overnight at 4° C. The plates were washed 5 times with PBS containing 0.1% Tween-20. Blocking was achieved by incubating the plates for 1 h at room temperature with BSA in 0.01 M PBS (1 mg/mL). The plates were then washed 5 times and incubated for 1 h with serum dilutions in PBS. Unbound antibody in the serum was removed by washing and the plates were incubated for 1 h at room temperature with Horseradish Peroxidase (HRP) goat anti-mouse IgG+IgM (Jackson Immunoresearch Laboratories) diluted 5000 times in PBS/BSA. The plates were washed with TMB (3,3′,5,5′-tetramethylbenzidine). One component HRP microwell substrate (Bio FX, Owings Mills, Md.) was added and allowed to react for 10 mins. Absorbances were recorded at 620 nm and were plotted against log10 [1/serum dilution].
# Two groups of five female BALB/c mice each were immunized on day 0 with Rha-Ficoll/Alum adjuvant (group A) or Rha-OVA/complete Freund's adjuvant (CFA) (group B). The mice were boosted three more times on days 14, 28, and 42 with either Rha-Ficoll/Alum (group A) or rha-OVA/incomplete Freund's adjuvant (ICF) (group B). Sera were collected separately from groups A and B after the third boost and the anti-Rha antibodies in the sera from the two groups of mice were isotyped by screening against Rha-BSA. […]
# [3] = system: U266 cells; assay: Tumor cell staining (FACS); format: cell-based, human; conditions: 0.5 μg antibody, FITC goat anti-mouse IgG+IgM
# Procedure: U266 cells (American Type Culture Collection, Manassas, Va.), were cultured in RPMI 1640 with 15% fetal calf serum (FCS). Cells were stained with purified mouse anti-human MUC1 antibodies (CD227, 0.5 μg), non-immune BALB/c mice serum (1/5 dilution) and group B2 mice serum (1/5 dilution). The cells were then stained with FITC-conjugated goat anti-mouse IgG+IgM (0.5 μg) and fluorescence was quantified with a BD FACS Calibur.
# These cells express MUC1 on their surface as shown by binding with mouse anti-human MUC1 antibodies (CD 227).
Substance,anti-Rha antibody titers in groups A2 and B2 relative to control groups [1] [fold],IgG3 share of anti-Rha antibodies [2] [%],IgM share of anti-Rha antibodies [2] [%],binding to MUC1 on U266 human leukemia cells [3]
2-Aminoethyl-α-L-Rhamnopyranoside-Ficoll Conjugate [Rha-Ficoll],25,48,25,
CD 227: purified mouse anti-human CD227 (anti-human MUC1) from BD-biosciences,,,,binding
